Data: US11192890B2, “FGFR kinase inhibitors and pharmaceutical uses” (AUCKLAND UNISERVICES LIMITED, priority 2017, dated 2021)
Several values for one entry are separate records, joined by “and”; a condition that tells them apart may be missing. Equal entries are not always repeated. Where two headings read alike, the source gives them in different places.

Columns and labels:
FGFR4 = target: T1, FGFR4 (Homo sapiens, UniProt P22455); assay: Isolated enzyme FRET-based Z-Lyte kinase inhibition assay; format: biochemical; conditions: means from 3 independent experiments; read-out: Isolate Enzyme Inhibition IC50, FGFR4
T1 construct: purchased Invitrogen
Experimental: (§1) FGFR1-4 and the Z-Lyte Kinase Assay Kit were purchased from Invitrogen. The concentration gradients from 5.1×10^−11 to 1.0×10^−6 mol/L were used for all the test compounds. The experiments were performed according to the instructions of the manufacturer.
(§2) FGFR1-4 isolated enzyme activity was determined using the FRET-based Z-Lyte kinase inhibition assay. The data are the means from 3 independent experiments.

FGFR2 = target: T2, FGFR2 (Homo sapiens, UniProt P21802); assay: as above; format: biochemical; conditions: means from 3 independent experiments; read-out: Isolate Enzyme Inhibition IC50, FGFR2
T2 construct: purchased Invitrogen
Experimental: as §1, §2

FGFR3 = target: T3, FGFR3 (Homo sapiens, UniProt P22607); assay: as above; format: biochemical; conditions: means from 3 independent experiments; read-out: Isolate Enzyme Inhibition IC50, FGFR3
T3 construct: purchased Invitrogen
Experimental: as §1, §2

[1] = tested on: FGFR3 in SW780 cells (phospho-ERK1/2); assay: Drug washout Western blot assay, SW780 cells; format: cell-based; conditions: SW780, 30 min; for inhibition of phosphorylation of ERK1/2, no washout: then FGF-stimulation; for phospho-ERK1/2 after extensive drug washout: washout prior to FGF-stimulation
[2] = tested on: FGFR2 in SUM52 cells (phospho-ERK1/2); assay: Drug washout Western blot assay, SUM52 cells; format: cell-based; conditions: SUM52, 30 min, washout prior to FGF-stimulation
Experimental: Cells were seeded on the day prior to drug treatment (1 million cells/well; 6-well plate).
Drug stocks were prepared in media using 1 mM or 10 mM DMSO stock solutions. Media was aspirated from each well and replaced with 2 ml of drug-free media for control wells or 2 ml of diluted drug for treated wells. Cells were exposed to drug for 30 min. Recombinant FGF (50 ng/well) was added to each well 15 minutes prior to the end of the drug exposure and protein was extracted as below.
Cells were exposed to drug for 30 min as above. Media was aspirated and each well was washed with 5 ml drug-free media. The wash media was aspirated and replaced with 2 ml drug-free media and cells incubated for a further 30 minutes, after which the wash protocol was repeated. Cells were incubated for a further 90 minutes in drug-free media. Recombinant FGF (50 ng/well) was added to each well 15 minutes prior to the end of the drug-free incubation and protein was extracted as below.
Cell lysates were prepared in 250 μL of RIPA lysis buffer containing protease inhibitor (1:100). After incubation on ice (30 min) and centrifugation (13,000 rpm, 5 min, 4° C.) the supernatants containing the proteins were stored (−20° C.) until required. Bicinchoninic acid (BCA) assay was used to determine the protein concentration of individual cell lysate samples.

[3] = tested on: FGFR1 in H520 cells (phospho-ERK1/2); assay: Drug washout Western blot assay, H520 cells; format: cell-based; conditions: H520; for phospho-ERK1/2 after extensive drug washout: 30 min, washout prior to FGF-stimulation; for reversible or irreversible inhibition of FGFR1 in cells / concentration required to suppress FGFR1 signalling through phospho-ERK1/2: 2 hours exposure; for reversible or irreversible inhibition of FGFR1 in cells: 100, 300 and 600 nM, with and without washout; for concentration required to suppress FGFR1 signalling through phospho-ERK1/2: tested at 100, 300 and 600 nM
[4] = tested on: FGFR2-amplified SUM52 breast cancer cells; assay: Cell proliferation assay (SRB); format: cell-based; conditions: SUM52, 120 h, read-out: Cellular Anti-proliferative IC50, SUM52, 5 days drug exposure
[5] = tested on: FGFR3-amplified SW780 bladder cancer cells; assay: Cell proliferation assay (SRB); conditions: Homo sapiens, SW780, 120 h, read-out: Cellular Anti-proliferative IC50, SW780, 5 days drug exposure
SUM52 cells = assay: Oxic and anoxic anti-proliferative activity of the prodrugs; conditions: for Hypoxic Cytotoxicity Ratio (HCR), SUM52: ratio of oxic and anoxic IC50
H520 cells = assay: as above
SW780 cells = assay: as above; format: cell-based; conditions: Homo sapiens, SW780; oxic conditions; read-out: Cellular Anti-proliferative IC50, SW780, Oxic
[6] = read-out: Cellular Anti-proliferative IC50, SUM52, Anoxic, 4 hours of anoxia, remainder of assay oxic
[7] = read-out: Cellular Anti-proliferative IC50, SUM52, Oxic, oxic conditions
[8] = read-out: Cellular Anti-proliferative IC50, H520, Oxic, oxic conditions

T1 sequence (P22455 22-802): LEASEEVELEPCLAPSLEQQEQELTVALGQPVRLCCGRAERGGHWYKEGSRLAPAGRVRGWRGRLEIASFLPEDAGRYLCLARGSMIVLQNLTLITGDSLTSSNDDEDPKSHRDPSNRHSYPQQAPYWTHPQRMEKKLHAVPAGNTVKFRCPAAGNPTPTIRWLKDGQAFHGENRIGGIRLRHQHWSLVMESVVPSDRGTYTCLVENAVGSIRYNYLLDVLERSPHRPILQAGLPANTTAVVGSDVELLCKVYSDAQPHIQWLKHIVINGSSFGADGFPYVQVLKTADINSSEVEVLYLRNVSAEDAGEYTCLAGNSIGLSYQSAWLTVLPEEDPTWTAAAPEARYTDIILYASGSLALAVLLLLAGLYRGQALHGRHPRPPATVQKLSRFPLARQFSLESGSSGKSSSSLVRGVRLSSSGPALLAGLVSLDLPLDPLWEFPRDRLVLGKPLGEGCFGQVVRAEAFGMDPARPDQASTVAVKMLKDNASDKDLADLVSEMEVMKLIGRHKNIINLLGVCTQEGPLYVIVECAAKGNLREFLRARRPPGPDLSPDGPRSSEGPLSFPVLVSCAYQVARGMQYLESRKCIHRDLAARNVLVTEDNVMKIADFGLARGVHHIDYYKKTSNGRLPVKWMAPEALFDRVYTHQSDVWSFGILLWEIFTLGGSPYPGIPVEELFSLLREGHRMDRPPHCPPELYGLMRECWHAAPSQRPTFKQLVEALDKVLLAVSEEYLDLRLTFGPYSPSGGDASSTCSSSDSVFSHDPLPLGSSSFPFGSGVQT
T3 sequence (P22607 23-806): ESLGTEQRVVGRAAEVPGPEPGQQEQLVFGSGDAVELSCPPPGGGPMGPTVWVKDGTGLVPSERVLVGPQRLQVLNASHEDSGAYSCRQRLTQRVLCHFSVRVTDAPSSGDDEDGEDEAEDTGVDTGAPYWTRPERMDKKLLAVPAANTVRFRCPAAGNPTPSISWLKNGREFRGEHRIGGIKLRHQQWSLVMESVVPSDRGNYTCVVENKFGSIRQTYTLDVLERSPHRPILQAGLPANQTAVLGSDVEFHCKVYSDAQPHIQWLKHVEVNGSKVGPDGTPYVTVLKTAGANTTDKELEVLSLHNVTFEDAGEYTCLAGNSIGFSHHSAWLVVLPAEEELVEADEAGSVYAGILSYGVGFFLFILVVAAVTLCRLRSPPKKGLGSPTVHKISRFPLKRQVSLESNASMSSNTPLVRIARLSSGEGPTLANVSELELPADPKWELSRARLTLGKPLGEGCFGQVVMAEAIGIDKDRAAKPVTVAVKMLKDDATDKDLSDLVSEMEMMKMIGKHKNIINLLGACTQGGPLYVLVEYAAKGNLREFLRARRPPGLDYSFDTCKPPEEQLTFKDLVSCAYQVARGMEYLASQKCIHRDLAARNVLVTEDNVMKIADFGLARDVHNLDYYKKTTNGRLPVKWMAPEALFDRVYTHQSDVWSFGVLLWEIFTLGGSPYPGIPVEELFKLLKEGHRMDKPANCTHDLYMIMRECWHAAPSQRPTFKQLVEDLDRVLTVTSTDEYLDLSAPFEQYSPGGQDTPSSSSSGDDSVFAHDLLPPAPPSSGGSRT
T2 sequence (P21802 22-821): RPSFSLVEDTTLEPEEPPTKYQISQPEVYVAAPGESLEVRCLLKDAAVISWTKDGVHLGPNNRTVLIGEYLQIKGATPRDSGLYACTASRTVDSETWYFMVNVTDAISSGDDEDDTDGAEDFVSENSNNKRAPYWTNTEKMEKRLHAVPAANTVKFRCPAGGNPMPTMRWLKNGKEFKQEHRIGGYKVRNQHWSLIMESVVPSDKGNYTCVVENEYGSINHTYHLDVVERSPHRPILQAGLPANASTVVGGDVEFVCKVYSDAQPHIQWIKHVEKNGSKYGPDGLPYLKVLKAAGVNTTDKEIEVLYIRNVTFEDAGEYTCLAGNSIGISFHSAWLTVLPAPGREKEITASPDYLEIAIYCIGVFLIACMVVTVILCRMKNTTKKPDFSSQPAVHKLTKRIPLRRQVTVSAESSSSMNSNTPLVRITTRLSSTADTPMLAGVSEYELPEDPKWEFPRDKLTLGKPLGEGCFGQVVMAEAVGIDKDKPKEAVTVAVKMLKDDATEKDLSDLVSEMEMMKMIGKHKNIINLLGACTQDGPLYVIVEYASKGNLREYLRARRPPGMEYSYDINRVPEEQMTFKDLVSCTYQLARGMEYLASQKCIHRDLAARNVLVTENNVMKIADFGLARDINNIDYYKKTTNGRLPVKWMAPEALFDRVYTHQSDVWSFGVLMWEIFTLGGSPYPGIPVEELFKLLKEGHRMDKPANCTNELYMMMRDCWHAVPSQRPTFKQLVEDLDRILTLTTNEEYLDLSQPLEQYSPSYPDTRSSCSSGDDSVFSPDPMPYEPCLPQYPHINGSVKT

Compound	reversible or irreversible inhibition of FGFR1 in cells [3]	melting point	Hypoxic Cytotoxicity Ratio (HCR), SUM52 (SUM52 cells)	IC50 (SUM52 cells; [6])	IC50 (SUM52 cells; [7])	IC50 (H520 cells; [8])	IC50 (SW780 cells)	other results
CNc1ncc2c(n1)N(CCCNC(=O)/C=C/CN(C)C)C(=O)N(c1c(Cl)c(OC)cc(OC)c1Cl)C2 [Compound 125, (E)-N-(3-(3-(2,6-dichloro-3,5-dimethoxyphenyl)-7-(methylamino)-2-oxo-3,4-dihydropyrimido[4,5-d]pyrimidin-1(2H)-yl)propyl)-4-(dimethylamino)but-2-enamide]								IC50 (FGFR4): > 1000 nM; IC50 (FGFR2): 6.5 nM; IC50 (FGFR3): 51 nM
COc1cc(Nc2ncc3c(n2)N(C2CCN(C(=O)/C=C/CN(C)C)CC2)C(=O)N(c2c(Cl)c(OC)cc(OC)c2Cl)C3)ccc1F [Compound 118, (E)-3-(2,6-dichloro-3,5-dimethoxyphenyl)-1-(1-(4-(dimethylamino)but-2-enoyl)piperidin-4-yl)-7-((4-fluoro-3-methoxyphenyl)amino)-3,4-dihydropyrimido[4,5-d] pyrimidin-2(1H)-one]								IC50 (FGFR4): < 100 nM and 9.6 nM; IC50 (FGFR3): 2.4 nM
CCN(CC)CCCCNc1ncc2cc(-c3cc(OC)cc(OC)c3)c(NC(=O)NC(C)(C)C)nc2n1 [PD173074, reference compound]	potent reversible inhibitor							inhibition of phosphorylation of ERK1/2, no washout ([1]; 100 nM): less effective; phospho-ERK1/2 after extensive drug washout ([1]; 100 nM): restoration; inhibition of phosphorylation of ERK1/2, no washout ([1]; 1000 nM): complete inhibition; phospho-ERK1/2 after extensive drug washout ([1]; 1000 nM): restoration; phospho-ERK1/2 after extensive drug washout ([2]; 100 nM): restoration; phospho-ERK1/2 after extensive drug washout ([2]; 1000 nM): restoration; phospho-ERK1/2 after extensive drug washout ([3]; 100 nM): restoration; phospho-ERK1/2 after extensive drug washout ([3]; 1000 nM): restoration; concentration required to suppress FGFR1 signalling through phospho-ERK1/2 [3]: ≤ 100 nM; IC50 [4]: 12 nM; IC50 [5]: 84 nM
COc1cc(OC)c(Cl)c(-c2cc3cnc(NC(C)C)cc3n(C3CCN(C(=O)/C=C/C[N+](C)(C)Cc4c([N+](=O)[O-])ncn4C)CC3)c2=O)c1Cl.[Br-] [Compound 215, (E)-4-(4-(3-(2,6-dichloro-3,5-dimethoxyphenyl)-7-(isopropylamino)-2-oxo-1,6-naphthyridin-1(2H)-yl)piperidin-1-yl)-N,N-dimethyl-N-((1-methyl-4-nitro-1H-imidazol-5-yl)methyl)-4-oxobut-2-en-1-aminium bromide]		202 to 205 °C	106	11 nM	1190 nM	4020 nM	3500 nM	Hypoxic Cytotoxicity Ratio (HCR), H520 (H520 cells; ratio of oxic and anoxic IC50): 19; IC50 (H520 cells; read-out: Cellular Anti-proliferative IC50, H520, Anoxic, 4 hours of anoxia, remainder of assay oxic): 209 nM
COc1cc(OC)c(Cl)c(N2Cc3cnc(NC4CCOCC4)nc3N(C3CCN(C(=O)/C=C/C[N+](C)(C)Cc4c([N+](=O)[O-])ncn4C)CC3)C2=O)c1Cl.O=C([O-])C(F)(F)F [Compound 203, (E)-4-(4-(3-(2,6-dichloro-3,5-dimethoxyphenyl)-2-oxo-7-((tetrahydro-2H-pyran-4-yl)amino)-3,4-dihydropyrimido[4,5-d]pyrimidin-1(2H)-yl)piperidin-1-yl)-N,N-dimethyl-N-((1-methyl-4-nitro-1H-imidazol-5-yl)methyl)-4-oxobut-2-en-1-aminium 2,2,2-trifluoroacetate]		157 to 160 °C	26	37 nM	961 nM			
COc1cc(OC)c(Br)c(-c2cc3cnc(NC(C)C)cc3n(C3CCN(C(=O)/C=C/C[N+](C)(C)Cc4c([N+](=O)[O-])ncn4C)CC3)c2=O)c1Br.[Br-] [Compound 216, (E)-4-(4-(3-(2,6-dibromo-3,5-dimethoxyphenyl)-7-(isopropylamino)-2-oxo-1,6-naphthyridin-1(2H)-yl)piperidin-1-yl)-N,N-dimethyl-N-((1-methyl-4-nitro-1H-imidazol-5-yl)methyl)-4-oxobut-2-en-1-aminium bromide]		219 °C	59	6 nM	346 nM			
COc1cc(OC)c(Cl)c(N2Cc3cnc(Nc4ccc(F)cc4)nc3N(C3CCN(C(=O)/C=C/C[N+](C)(C)Cc4c([N+](=O)[O-])ncn4C)CC3)C2=O)c1Cl.O=C([O-])C(F)(F)F [Compound 205, (E)-4-(4-(3-(2,6-dichloro-3,5-dimethoxyphenyl)-7-((4-fluorophenyl)amino)-2-oxo-3,4-dihydropyrimido[4,5-d]pyrimidin-1(2H)-yl)piperidin-1-yl)-N,N-dimethyl-N-((1-methyl-4-nitro-1H-imidazol-5-yl)methyl)-4-oxobut-2-en-1-aminium 2,2,2-trifluoroacetate]	reversible inhibitors	162 to 165 °C	6	4 nM	23 nM	668 nM	1470 nM	concentration required to suppress FGFR1 signalling through phospho-ERK1/2 [3]: > 300 nM
COc1cc(OC)cc(N2Cc3cnc(Nc4ccc(N5CCOCC5)cc4)nc3N(C3CCN(C(=O)/C=C/C[N+](C)(C)Cc4c([N+](=O)[O-])ncn4C)CC3)C2=O)c1.[Br-] [Compound 220, (E)-4-(4-(3-(3,5-dimethoxyphenyl)-7-((4-morpholinophenyl)amino)-2-oxo-3,4-dihydropyrimido[4,5-d]pyrimidin-1(2H)-yl)piperidin-1-yl)-N,N-dimethyl-N-((1-methyl-4-nitro-1H-imidazol-5-yl)methyl)-4-oxobut-2-en-1-aminium bromide]		192 to 195 °C	48	36 nM	1720 nM			
COc1cc(OC)c(Cl)c(N2Cc3cnc(NC(C)C)nc3N([C@H]3CCN(C(=O)/C=C/C[N+](C)(C)Cc4c([N+](=O)[O-])ncn4C)C3)C2=O)c1Cl.[Br-] [Compound 201, (S,E)-4-(3-(3-(2,6-dichloro-3,5-dimethoxyphenyl)-7-(isopropylamino)-2-oxo-3,4-dihydropyrimido[4,5-d]pyrimidin-1(2H)-yl)pyrrolidin-1-yl)-N,N-dimethyl-N-((1-methyl-4-nitro-1H-imidazol-5-yl)methyl)-4-oxobut-2-en-1-aminium bromide]	reversible inhibitors	184 to 187 °C	16	38 nM	612 nM	902 nM	1990 nM	
